Experimental findings from patent publication US8545834B2, “G-substrate for the treatment and prevention of parkinson's disease” (The McLean Hospital Corporation, priority 2007, dated 2013) are described below.

Holding throughout (type): cell-based, human
The test system of assay [1] is PP2A. The experiment in a line: PP2A activity assay (immunoprecipitated PP2A, phosphopeptide, Malachite Green). The conditions noted are these: BE(2)-M17 cells exposed to 50 μM 6-OHDA for 2 hours; versus control cells. How it is done:
PP2A activity was measured in control BE(2)-M17 cells at various incubation times (t=0, 1, 2, 5 and 8 hr) after exposure to 50 μM 6-OHDA. […] Control, wild-type, and T123A G-substrate-expressing cells were then exposed to 50 μM 6-OHDA for 2 hours before measurement of PP2A activity.
PP2A activity was measured using a non-radioactive kit according to the manufacturer's instruction (Upstate Biotechnologies, Lake Placid, N.Y.). After 50 μM 6-OHDA exposure with various times, cells were harvested in 20 mM imidazole-HCl, 2 mM EDTA, 2 mM EGTA, pH7 with a protease inhibitor cocktail (Sigma). Protein concentrations of the lysates were measured using BCA assay (Pierce) and 500 μg of protein was immunoprecipitated using an anti-PP2A catalytic subunit antibody and protein A-Sepharose beads. Immunoprecipitated PP2A was then incubated with phosphopeptide (K-R-pT-I-R-R (SEQ ID NO: 8)) for 10 min at 37° C. Dephosphorylation of the phosphopeptide was assayed spectrophotometrically at 650 nm using Malachite Green.

Assay [2] has as its system Akt, GSK3β, ERK1/2, p38. Kind of assay: Western blot of phosphorylation levels of PP2A targets in BE(2)-M17 cells. The source says: As described herein, G-substrate overexpression altered the phosphorylation levels of PP2A targets known to play critical roles in cell survival. Akt, GSK3β, and ERK1/2 are known to promote cell survival when phosphorylated (Song et al., J. Cell. Mol. Med. 9: 59-71, 2005; Chen et al., 2004; Ray et al., J. Biol. Chem. 280: 31091-31100, 2005; Tamura et al., FEBS Lett. 569: 249-255, 2004) and phosphorylated p38 is known to mediate cell death in dopaminergic neurons exposed to various toxins including 6-OHDA (Choi et al., J. Biol. Chem. 279: 20451-20460, 2004; Ruano et al., Neurosci. 140: 1157-1168, 2006; Ou et al., Proc. Natl. Acad. Sci. USA 103: 10923-10928, 2006). To test whether changes in phosphorylation levels of these proteins are G-substrate-dependent, both control and G-substrate-expressing cells were exposed to 50 μM 6-OHDA for various durations (t=0, 2, 5 and 10 hr). BE(2)-M17 cells were prepared and cultured as described above. The level of the total and phosphorylated forms of these PP2A substrates was detected by Western blot analysis (FIGS. 7A, 7C, 7E, and 7H).
(§1) Cells and tissue samples were collected from and suspended in lysis buffer containing: 50 mM Tris-HCl, 0.15 M NaCl, 0.32 M sucrose, 1.0 mM EDTA, and 1% NP-40. In addition, phosphatase inhibitors I and II (1:100) and protease inhibitors (1:100) were added fresh prior to cell lysis (Sigma-Aldrich, P2850, P5276, and P8340 respectively). Following cell lysis, the homogenate was centrifuged, a portion of the supernatant was reserved for protein determination (BCA Assay, Pierce, Rockford, Ill.) and the remaining was stored at −20° C. 20 μg (in vitro cell preps) and 50 μg (tissue dissections) of solubilized protein were mixed 1:1 with sample buffer and boiled for 5 min. The samples and molecular weight standards were separated using the Criterion precast 10% SDS-polyacrylamide gel system (Bio-Rad, Hercules, Calif.). After electrophoresis, the proteins were electrically transferred to PVDF membranes at 100 V for 30 min. After transfer, blots were incubated in Tris-buffered saline with 0.1% Tween 20 (TBS-T) containing 5% BSA. Subsequently, blots were incubated with the following antibodies at 4° C. overnight (1:1000 unless otherwise stated): phospho-Akt (ser473), phospho-GSK3β (ser9), phospho-erk1/2, and phospho-p38 (Cell Signaling Technologies, Danvers, Mass.). HRP-conjugated secondary antibodies were then applied and immunoreactive bands were visualized with chemiluminescence (Amersham Biosciences, Arlington Heights, Ill.) and exposed onto film. Immunoblots were then stripped and re-probed for the expression of the total protein (Cell Signaling) and beta-actin (1:10 000) (Abcam) to serve as a loading control. Optical density analysis (NIH image) was used to determine the relative abundance of protein in each sample. The optical densities of the phospho epitopes were standardized to their respective total proteins and this value was used in the statistical analyses.
A general note: In western blotting, separated proteins are transferred to a membrane and probed.

The subject of assay [3] is VMAT2. Kind of assay: Western blot of VMAT2 expression in M17 cells.
Text: BE(2)-M17 cells were used to investigate the interaction between G-substrate and α-synuclein, a known risk factor and possible causative agent in Parkinson's disease. […] Likewise, VMAT2 expression was reduced in naïve M17 cells following the reduction in endogenous G-substrate using siRNA (FIG. 10C).
M17 cells transiently and stably overexpression α-synuclein were transfected using the G-substrate lentiviral vector described above.
The PP2A regulation of VMAT 2 was investigated in M17 cells. PP2A levels were reduced using RNAi. […] The effect of PP2A inhibition was not generalized to other dopaminergic markers tested.
as §1

Take “G-substrate: human wild type G-substrate (SEQ ID NO.: 1) overexpressed from a lentiviral vector”: the “PP2A activity in G-substrate-expressing cells” value in assay [1] is given as “significant reduction”. Moreover, the “level of phosphorylated p38” value in assay [2] (G-substrate overexpression, 50 μM 6-OHDA) is reported as “did not alter”. Besides, the “level of pAkt” value in assay [2] (G-substrate overexpression, basal and 2, 5 and 10 hours after 50 μM 6-OHDA) was “significant increase”. In addition, the “basal level of pGSK3β” value in assay [2] (G-substrate-overexpressing cells, basal) is given as “increased”. Besides, the “level of pErk2” value in assay [2] (only at 10 hours following 50 μM 6-OHDA, no basal level increase) is “increased”. In assay [2] (similar trend as pErk2, 50 μM 6-OHDA), the “level of pErk1” value is listed as “did not reach the statistical significance”. Moreover, in assay [3] (M17 cells transiently and stably overexpressing α-synuclein), the “VMAT2 expression in α-synuclein overexpressing cells” value is reported as “reversing the α-synuclein-induced loss of VMAT2”. Also, the VMAT2 expression result in assay [3] (naïve M17 cells) was “significant increase”.
